Results on five compounds are retold here after patent US11059815B2, “Synthesis of small molecule histone deacetylase 6 degraders, compounds formed thereby, and pharmaceutical compositions containing them” (Wisconsin Alumni Research Foundation, priority 2018, dated 2021).

This assay deals with T1, HDAC6 (Homo sapiens, UniProt Q9UBN7).
T1 construct: endogenous in cells; host or cells: MM1S (ATCC CRL-2974)
T1 sequence (Q9UBN7 1-1215): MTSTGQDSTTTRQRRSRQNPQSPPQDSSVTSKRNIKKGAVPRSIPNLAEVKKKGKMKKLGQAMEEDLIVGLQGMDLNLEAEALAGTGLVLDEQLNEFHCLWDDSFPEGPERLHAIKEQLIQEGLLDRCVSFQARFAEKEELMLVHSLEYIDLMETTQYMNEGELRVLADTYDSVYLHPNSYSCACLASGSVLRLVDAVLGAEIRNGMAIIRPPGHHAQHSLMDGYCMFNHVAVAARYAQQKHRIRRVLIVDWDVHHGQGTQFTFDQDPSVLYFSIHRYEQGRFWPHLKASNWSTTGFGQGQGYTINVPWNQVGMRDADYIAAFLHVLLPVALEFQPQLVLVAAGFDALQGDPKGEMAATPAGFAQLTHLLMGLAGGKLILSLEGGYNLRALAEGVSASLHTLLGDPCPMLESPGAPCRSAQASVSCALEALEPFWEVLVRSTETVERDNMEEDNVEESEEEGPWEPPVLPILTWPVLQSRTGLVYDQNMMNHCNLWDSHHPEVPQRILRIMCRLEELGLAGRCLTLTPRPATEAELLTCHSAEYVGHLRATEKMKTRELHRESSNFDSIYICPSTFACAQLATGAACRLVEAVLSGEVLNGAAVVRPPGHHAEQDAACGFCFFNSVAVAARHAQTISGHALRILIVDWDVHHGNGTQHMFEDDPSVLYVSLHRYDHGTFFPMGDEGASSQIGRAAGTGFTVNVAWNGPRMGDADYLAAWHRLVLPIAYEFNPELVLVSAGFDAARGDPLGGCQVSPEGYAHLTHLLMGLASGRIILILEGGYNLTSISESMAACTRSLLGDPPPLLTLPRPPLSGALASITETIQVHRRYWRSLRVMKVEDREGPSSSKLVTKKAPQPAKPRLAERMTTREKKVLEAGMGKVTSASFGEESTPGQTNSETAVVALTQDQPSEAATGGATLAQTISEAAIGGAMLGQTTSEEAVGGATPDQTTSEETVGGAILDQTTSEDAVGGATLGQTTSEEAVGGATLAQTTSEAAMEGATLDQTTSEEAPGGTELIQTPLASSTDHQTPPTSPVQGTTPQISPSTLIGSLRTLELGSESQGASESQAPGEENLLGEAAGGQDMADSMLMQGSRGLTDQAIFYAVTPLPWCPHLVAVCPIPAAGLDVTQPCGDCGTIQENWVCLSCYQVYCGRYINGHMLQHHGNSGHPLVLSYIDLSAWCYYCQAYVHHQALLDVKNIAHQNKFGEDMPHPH
The experiment in a line: In-cell ELISA of HDAC6 protein level in MM1S cells. The format is cell-based. Conditions: 6 h; for DC50 / Dmax: 0.1 nM to 1 μM, nonlinear fit, ± SD; for Dmax / inhibition at 0.01 µM / inhibition at 0.1 µM: MM1.S; for Dmax: read-out: Dmax (Vehicle %); for inhibition at 0.01 µM: n=3, read-out: Degradation (%) 10 nM; for inhibition at 0.1 µM: n=3, read-out: Degradation (%) 100 nM. As to the method:
FIG. 9 is a histogram depicting the results of screening of compounds for HDAC6 degradation activity by in-cell ELISA. MM1S cells were treated with compounds at 100 nM (blue bars) or 10 nM (red bars) for 6 h. Data was normalized to vehicle (DMSO)-treated group and the bar graph represents as mean of relative HDAC6 protein level (n=3) with ±SD as error bar. Statistical significance was analyzed by one-way ANOVA. Not significant (ns) P>0.05, *P≤0.05, **P≤0.01, ***P≤0.001, ****P≤0.0001.
FIG. 11 is a graph depicting dose response of selected degrader candidates. MM1S cells were treated for 6 h and analyzed by in-cell ELISA. Data was normalized to vehicle (DMSO)-treated group and dot plot represented as mean relative expression (n=3) with ±SD as error bar. Nonlinear fitting of inhibitor concentration vs. response (three parameters) was generated by GraphPad Prism with R2 from 0.97 to 0.99.
FIG. 15 is a histogram depicting relative HDAC6 expression as a function of linker length for compounds 3a through 3k as described in the Examples section, Part 2. Human MM1S cells were treated with 100 nM degraders for 6 hours and analyzed by in-cell ELISA assay.
FIG. 17 is a dose-response curve for degraders 3j (n=1), 3k (n=12) and 2, at concentrations from 1 nM to 300 nM for 4 h in MM1S. See the Examples, Part 2.
To screen the new series of degraders, an in-cell ELISA assay was developed and validated. The compounds were treated at 100 nM and 10 nM in MM1S cells for 6 h. Resulting cells were then fixed and analyzed by in-cell ELISA. […] Degraders including 1 at 100 nM degraded 73.5% to 85.0% of HDAC6 with minor difference. At 10 nM concentration of compounds, obvious structure-activity-relationship (SAR) was observed. […] For example, 12d, 12h, 12i, 12o and 12p all achieved about 70% degradation. Among the C4-linked series, 12d with medium length linker (5+1) achieved most degradation in sub-series 12a-e (m=1). […] Among C5-linked series, the potency of sub-series 12l-p (m=1) increased with the linker length. […] It appeared that both the distance and linking positions contributed to the degradation efficiency. The rigid triazole ring in the middle of the linker likely modulated the plasticity of degrader-bridged ternary complex.
The amount of cellular HDAC6 was measured in response to concentrations of compounds from 0.1 nM to 1 μM. […] The new degraders had single-digit nanomolar DC50, which was about 3 to 5 fold of improvement from 9.12 nM of degrader 1. […] As discussed above, most PROTACs were designed to avoid degrading other proteins except the targeted POIs. However, in these studies, it was hypothesized that HDAC6 degraders with IKZF degradation will have enhanced anti-proliferation effect MM1S cells.
MM1S cells were harvested and plated with 5×10^5 cells in 100 μL media per well 96-wells plate. After overnight seeding, 25 μL media containing 5× dosing concentration of the compounds or vehicle was added to each well. After 6-hour treatment at 37° C. in a humidified 5% CO2 atmosphere, cells were fixed by adding 125 μL 8% formaldehyde in TBS buffer (137 mM NaCl, 25 mM Tris, 2.7 mM potassium chloride, pH 7.6) and incubated at room temperature (RT) for 15 minutes. Removal of fixing solution was followed by once rinse and twice washes with TBS-T washing buffer (137 mM NaCl, 20 mM Tris, 0.1% Tween, pH 7.6). Cells were then permeabilized by adding 100 μL 0.1% Triton-X in TBS and incubated at RT for 15 minutes. Removal of permeabilizing solution was followed by once rinse and once wash with TBS-T. Cellular endogenous peroxidases were quenched by adding 100 μL 1% H2O2 in TBS and incubation at RT for 20 minutes. Removal of quenching solution was followed by once rinse and once wash with TBS-T. Non-specific binding sites were blocked by adding […] 5% BSA in TBS-T (with 0.02% NaN3) and incubation at 4° C. overnight. […]

Where [1] appears, read: 10 nM, 100% minus mean (± SD) relative HDAC6 expression.
Where [2] appears, read: 100 nM, 100% minus mean (± SD) relative HDAC6 expression.

As to `O=C(CCCCCCC(=O)N/N=C/c1ccc(OCCOCCOCCn2cc(CNc3cccc4c3C(=O)N(C3CCC(=O)NC3=O)C4=O)nn2)cc1)NO` (stereo not drawn) [Compound 1], the DC50 amounted to 9.12 nM and the Dmax came out at 84.1 ± 2.41%. In addition, the “Degradation (%) 10 nM” value (10 nM, 100% minus mean (± SD) relative HDAC6 expression, n=3) worked out at 47.9 ± 0.9%. Also, the inhibition at 0.01 µM under setting [1] turned out to be 47.9%. In addition, the inhibition at 0.1 µM under setting [2] amounted to 73.5 ± 0.3%.
As to `CCCCN(Cc1ccc(C(=O)NO)cc1)C(=O)Nc1ccc(OCCCCCn2cc(CNc3cccc4c3C(=O)N(C3CCC(=O)NC3=O)C4=O)nn2)cc1` (stereo not drawn) [Compound 12d, 4-((1-butyl-3-(4-((5-(4-(((2-(2,6-dioxopiperidin-3-yl)-1,3-dioxoisoindolin-4-yl)amino)methyl)-1H-1,2,3-triazol-1-yl)pentyl)oxy)phenyl)ureido)methyl)-N-hydroxybenzamide], the DC50 was 1.64 nM and the Dmax came out at 86.3 ± 1.7%. For the same compound, under setting [1], the inhibition at 0.01 µM is around 70%. Further, the inhibition at 0.1 µM under setting [2] was found to be 82.7 ± 1.7%.
Take `CCCCN(Cc1ccc(C(=O)NO)cc1)C(=O)Nc1ccccc1` [Next-A, 4-[[butyl[(phenylamino)carbonyl]amino]methyl]-N-hydroxy-benzamide, reference compound]: the “effect on expression of HDAC6 compared with vehicle” value is, setting by setting: (10 nM) “didn't affect”; (100 nM) “very minimal effects”.
Regarding `Nc1cccc2c1C(=O)N(C1CCC(=O)NC1=O)C2=O` (stereo not drawn) [Pomalidomide, reference compound], the “effect on expression of HDAC6 compared with vehicle” value by setting is: (10 nM) “didn't affect”; (100 nM) “very minimal effects”.
Turning to `CCCCN(Cc1ccc(C(=O)NO)cc1)C(=O)Nc1ccc(OCCCn2cc(CNc3ccc4c(c3)C(=O)N(C3CCC(=O)NC3=O)C4=O)nn2)cc1` (stereo not drawn) [Compound 12m, 4-((1-butyl-3-(4-(3-(4-(((2-(2,6-dioxopiperidin-3-yl)-1,3-dioxoisoindolin-5-yl)amino)methyl)-1H-1,2,3-triazol-1-yl)propoxy)phenyl)ureido)methyl)-N-hydroxybenzamide], under setting [1], the inhibition at 0.01 µM came out at 60.3 ± 1.3%. In addition, the inhibition at 0.1 µM under setting [2] came out at 81.2 ± 0.6%.
